Results as given in patent US20120134946A1, “COMPOSITION HAVING ANTIOXIDANT AND WHITENING EFFECTS CONTAINING A CONCENTRATE OF KOREAN RICE WINE” (AMOREPACIFIC CORPORATION, priority 2009, published 2012).

Columns and labels:
[1] = test system: Mouse melanocytes (Mel-Ab cells); experiment: Melanin production inhibiting effect using mouse melanocytes; format: cell-based; conditions: 10 ppm, 3 consecutive days, absorbance at 400 nm
Procedure: Mouse melanocytes (Mel-Ab cells) derived from C57BL/6 mouse (Dooley, T. P. et al, Skin Pharmacol., 7, pp. 188-200) were cultured under the condition of 37° C. and 5% CO2 in DMEM containing 10% FBS, 100 nM 2-O-tetradecanoyphorbol-13-acetate and 1 nM cholera toxin. The cultured Mel-Ab cells were detached with 0.25% trypsin-EDTA and cultured in a 24-well plate, with 10^5 cells/well. From day 2, hydroquinone or the concentrated makgeolli of Example 1 (10 ppm each) was added for 3 consecutive days as test sample. Hydroquinone was used as positive control. Subsequently, after removing the medium and washing with PBS, the cells were suspended in 1 N sodium hydroxide and absorbance was measured at 400 nm. Based on the measurement result, melanin production inhibiting effect was calculated according to Equation 1.
Melanin production inhibiting effect (%)=100−(Absorbance of test sample/Absorbance of control×100) Equation 1

human skin = experiment: Whitening effect for human skin (UVB-induced tanning); format: in vivo; conditions: 1% topical on UVB-tanned upper arm, 10 weeks, 12 healthy men, colorimeter
Procedure: The whitening effect of the concentrated makgeolli of Example 1 for human skin was tested as follows.
12 healthy men were used as test subjects. An opaque tape with a hole of 1.5 cm diameter was attached on the upper arm of the test subject and UVB of about 1.5-2 times the minimal erythemal dose was irradiated to induce tanning.
After the UV radiation, 1% concentrated makgeolli of Example 1 (in 7:3 1,3-butylene glycol:ethanol solvent), 1% hydroquinone or 1% solvent (vehicle, negative control) was applied. […] The skin color was measured every week using the colorimeter CR2002 (Minolta, Japan).
The difference in skin color (ΔL*) at the initiation of application and after the completion of test was calculated according to Equation 2. Whitening effect was determined from the ΔL* of the sample-applied portion and the control portion. A ΔL* value of about 2 can be evaluated as distinct whitening effect and one of about 1.5 can be evaluated as positive whitening effect.
ΔL*=L*after the completion of test−L*at the initiation of application Equation 2

[2] = Antioxidant effect (DPPH test); format: biochemical; conditions: 100 μM DPPH, 37° C., 30 minutes, absorbance at 540 nm
Procedure: The antioxidant effect was determined as the concentration at which absorbance is decreased to 50% of control (IC50). 100 μM DPPH solution (in ethanol, 190 μL) was mixed with the concentrated makgeolli prepared in Example 1 or control (10 μL each). The resulting mixture was kept at 37° C. for 30 minutes and absorbance was measured at 540 nm. Trolox, which is widely used as synthetic antioxidant, was used as the control.

[3] = test system: Human keratinocyte HaCaT cell line; experiment: ROS production inhibiting effect using fluorescent substances (DCFH-DA, UVB); format: cell-based; conditions: light or radiation study, HaCaT cells, UVB 30 mJ/cm^2, DCF fluorescence, read-out: ROS production inhibiting effect (% of control)
Procedure: Human keratinocyte HaCaT cell line was used. The cells were seeded on a 96-well black plate for fluorescence measurement, with 2.0×10^4 cells per well, cultured under the condition of 37° C. and 5% CO2 for 1 day using Dulbecco's modified Eagle's medium (DMEM, FBS 10%) containing penicillin/streptomycin, and then treated with the test sample. The cells were cultured under the condition of 37°C. and 5% CO2 for 1 day using serum (FBS)-free DMEM containing penicillin/streptomycin treated with the test sample as described in Table 2. After culturing for 24 hours, after washing with HEPES-buffered control salt solution (HCSS) to remove the remaining medium and adding 20 μM 2′,7′-dichlorodihydro-fluorescein diacetate (DCFH-DA, Molecular Probes, Inc., 100 μL), the cells were cultured under the condition of 37° C. and 5% CO2 for 20 minutes and then washed with HCSS. Then, after adding HCSS (100 μL) treated with the samples of different concentrations, the fluorescence intensity of the ROS, oxidized dichlorofluorescein (DCF), was measured using a fluorescence plate reader (Ex=485 nm, Em=530 nm). Then, after immediately and 3 hours after irradiation of UVB (30 mJ/cm^2), fluorescence intensity was measured using the fluorescence plate reader (Ex=485 nm, Em=530 nm). Trolox was used as control.

In the case of `Oc1ccc(O)cc1` [Hydroquinone], the “Melanin production inhibiting effect (%)” value [1] is reported as 41.1% and the “Change in skin color (ΔL*)” value (human skin) is reported as 1.90 ± 0.11.

In the case of `Cc1c(C)c2c(c(C)c1O)CCC(C)(C(=O)O)O2` (stereo not shown) [Trolox], the “IC50 (concentration at which absorbance is decreased to 50% of control)” value [2] is reported as 8.64 ppm, the activity at 1 ppm ([3]; 1 ppm) is reported as 76.9% and the activity at 10 ppm ([3]; 10 ppm) is reported as 74.6%. It also gave an activity at 25 ppm ([3]; 25 ppm) of 73.3% and an activity at 50 ppm ([3]; 50 ppm) of 58.5%.
